Data as given in publication PMC12650265 (The Journal of Experimental Medicine, 2025).
pIC50: −log10 of the molar value. “Also recorded” adds a separate entry of the source.

Tests used:
MR1^R9H = test system: T1, MR1^R9H; experiment: refolding of MR1^R9H with ligand in solution; format: binding, human
T1 construct: plasmids encoding for the extracellular domains of MR1, β2m, and the AF-7 TCRα and TCRβ chains; made in house
From the text: (§1) We then tested the effect of the RF catabolites on the expression of two mutant versions of MR1 termed MR1^R9H ([Howson et al., 2020]) and MR1^K43A ([Reantragoon et al., 2013]). First, we tested the MR1^R9H mutant ([Howson et al., 2020]), which represents a rare, natural human polymorph. […] We used C1R.MR1^R9H cells, which are produced by stable transduction of wild-type C1R cells, which express low levels of wild-type MR1, with a vector expressing the MR1^R9H mutant ([Howson et al., 2020]). […] When C1R. […] Next, we sought to understand how the previously characterized K43A mutation affects ligand binding.
Escherichia coli BL21(DE3) cells were transformed with plasmids encoding for the extracellular domains of MR1, β2m, and the AF-7 TCRα and TCRβ chains ([Kjer-Nielsen et al., 2012]; [Patel et al., 2013]; [Wang et al., 2022a]). The proteins were then expressed, and the inclusion bodies were purified, cleaned, and used for refolding. For both MR1 and AF-7 TCR, inclusion bodies were refolded through rapid dilution overnight as previously mentioned ([Keller et al., 2017]). To refold MR1 with ligands, 58 mg MR1 inclusion bodies along with 30 mg of β2m inclusion bodies were placed in 500 ml of refold buffer consisting of 0.1 M Tris, pH 8.0, 5 M of urea, 2 mM EDTA, 2.5 mM oxidized glutathione, 20 mM reduced glutathione, and 0.4 M of L-arginine for 16 h at 4°C. […]

[1] = test system: MAIT and TRAV1-2^−ve cells from PBMCs; experiment: TCR-independent or bead stimulation of PBMCs (PMA and ionomycin, αCD3/αCD28 beads); format: cell-based, human; settings: PBMCs preincubated, then αCD3- and αCD28-coated beads
[2] = test system: CD3^+ MR1-5-OP-RU tetramer^+ MAIT cells; experiment: MAIT cell proliferation in CTV-labeled PBMCs; format: cell-based, human; settings: 7-day culture, 5-OP-RU 10 µM, others 100 µM
Vγ9Vδ2 T cells = experiment: Vγ9Vδ2 T cell activation by zoledronate in PBMCs; format: cell-based, human; settings: PBMCs titrated with ligand in the presence of zoledronate
[3] = test system: T2, MR1 on PBMC-derived B lymphocytes; experiment: MR1 surface expression on primary B cells; format: cell-based; settings: primary human B cells, 16 h, highest doses, with or without 5-OP-RU
T2 construct: we also measured MR1 on the surface of cells expressing wild-type levels of MR1; endogenous in cells; host or cells: PBMC-derived B lymphocytes from healthy human donors

MAIT cells from PBMCs = experiment: primary MAIT cell activation in PBMCs (CD69, TNF); format: cell-based, human; settings: 18 h, in the presence of 5-OP-RU or 5-A-RU
[4] = test system: T3, human MR1–β2-microglobulin (β2m) complex; experiment: refolding of recombinant MR1-β2m with ligand; format: binding; settings: ligand added to refolding buffer; gel filtration and SDS-PAGE
T3 construct: plasmids encoding for the extracellular domains of MR1, β2m, and the AF-7 TCRα and TCRβ chains; made in house

[5] = test system: SKW-3 cells expressing MAIT TCR MBV28; experiment: SKW-3 reporter T cell activation (CD69), coculture with C1R.MR1; format: cell-based; settings: SKW-3-MBV28, in the presence of 5-OP-RU
Description: (§2) Given the intracellular MR1 retention induced by the RF catabolites, we anticipated that these ligands could influence the activity of MR1-reactive T cells. First, we utilized a system whereby reporter SKW-3 T cell lines were cocultured with C1R.MR1 APCs and activation was determined by CD69 expression. […] In contrast, SKW-3-MBV28 cells were inhibited by alloxazine but activated by lumichrome (Fig. S3, D–F). Two MR1-restricted TRAV1-2^−ve SKW-3 T cell lines were also tested.
(§3) C1R.MR1 cells (1 × 10^5) were initially stained with CTV (Thermo Fisher Scientific) for 15 min and then incubated with RF catabolites for 20 h. […] Cells were subsequently stained with PE-Cy7-conjugated anti-CD69 (1:100; BD Biosciences) and PE-labeled anti-MR1 (1:100, clone 26.5; BD Biosciences), before analysis on a LSRFortessa (BD Biosciences) flow cytometer. Activation of the SKW-3 cells was reflected by the cell surface CD69 expression.

[6] = test system: SKW-3 cells expressing MAIT TCR AF-7; experiment: as above; format: cell-based
Description: as §2, §3

SKW-3-MAV36 line = experiment: as above; format: cell-based; settings: SKW-3-MAV36, in the presence of 5-OP-RU
Description: as §2, §3

SKW-3-DGB129 line = experiment: as above; format: cell-based; settings: SKW-3-DGB129 cocultured with C1R.MR1
Description: as §2, §3

hMR1 protein = molecular target: T4, hMR1 protein (Homo sapiens, UniProt Q95460); experiment: fluorescence polarization–based cell-free assay, competition with JYM20 for MR1 binding; settings: 50% inhibition of 10 nM JYM20 binding to 100 nM empty hMR1, 37°C; three independent experiments in triplicate
T4 construct: plasmids encoding for the extracellular domains of MR1, β2m, and the AF-7 TCRα and TCRβ chains; made in house; host or cells: Escherichia coli BL21(DE3)

[7] = test system: T5, MR1^K43A on C1R.MR1^K43A cells; experiment: cell surface MR1^K43A by flow cytometry; format: cell-based, human
T5 construct: expressed in transfected cells; host or cells: C1R cells overexpressing MR1^K43A
From the text: as §1
The level of MR1 expressed on the cell surface was measured after the exposure to the investigated ligands as previously described ([Awad et al., 2020a]; [Wang et al., 2022a]). C1R Ag-presenting B lymphocytes overexpressing MR1*01 (C1R.MR1), MR1^K43A mutant (C1R.MR1^K43A), MR1^R9H mutant (C1R.MR1^R9H), or HLA-A*02:01 (C1R-A2), in addition to the monocytic THP-1-MR1 cells, were used in this study. 2 × 10^5 cells were incubated with RF catabolites for 3 or 16 h at 37°C and 5% CO2 in 200 μl folate-free RPMI 1640 medium from Gibco (Cat. No. 11875-093) fortified with 10% fetal bovine serum, sodium pyruvate (1 mmol/L), HEPES buffer (15 mmol/L), pH 7.2–7.5, 2% penicillin (100 U/ml), streptomycin ([…]), GlutaMAX (2 mmol/L), nonessential amino acids (0.1 mmol/L) (all from Thermo Fisher Scientific, Life Technologies), and 2-mercaptoethanol ([…], Sigma-Aldrich) (RF-10). After incubation, the cells were first stained with Zombie Aqua Fixable Viability Kit from BioLegend (Cat. No. 423102) and then incubated with biotinylated 8F2F9 αMR1 antibody for 30 min on ice. The unbound antibody was then washed off with 2% fetal bovine serum/PBS (called 2% FACS hereafter) buffer. The cells were finally incubated with PE-conjugated streptavidin (30 μg/ml; BioLegend) and then washed with 2% FACS buffer. The PE fluorescence intensity reflects the surface MR1 level. The data were acquired with LSRFortessa X-20 (BD Biosciences) and Diva software (BD Biosciences) and analyzed using FlowJo software (BD Biosciences).

[8] = test system: T6, folded MR1 in C1R.MR1 cells; experiment: intracellular total folded MR1 by flow cytometry (8F2.F9); format: cell-based, human; settings: 16 h, 100 µM
T6 construct: expressed in transfected cells; host or cells: C1R B lymphoblastoid cells transduced with MR1*01

[9] = test system: T7, surface MR1*01 on C1R.MR1 cells; experiment: quantification of cell surface MR1 by flow cytometry, C1R.MR1 cells; format: cell-based, human
T7 construct: expressed in transfected cells; host or cells: C1R B lymphoblastoid cells transduced with MR1*01

soluble WT MR1 = experiment: fluorescence-based thermal shift (thermostability) assay of MR1–ligand complexes; format: binding, human; settings: MR1 refolded with the ligand; SYPRO Orange, 28 to 95°C; three independent experiments; listed as MR1-Lumichrome

T4 sequence (Q95460 23-302 limits assumed): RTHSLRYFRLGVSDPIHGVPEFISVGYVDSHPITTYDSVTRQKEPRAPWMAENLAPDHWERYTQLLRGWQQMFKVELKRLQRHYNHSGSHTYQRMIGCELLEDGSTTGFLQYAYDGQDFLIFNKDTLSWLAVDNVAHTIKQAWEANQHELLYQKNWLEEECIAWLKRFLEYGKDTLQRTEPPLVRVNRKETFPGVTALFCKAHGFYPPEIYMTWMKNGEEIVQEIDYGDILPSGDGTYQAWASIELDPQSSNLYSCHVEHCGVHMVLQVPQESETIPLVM
T4 sequence (P61769 21-119 partner): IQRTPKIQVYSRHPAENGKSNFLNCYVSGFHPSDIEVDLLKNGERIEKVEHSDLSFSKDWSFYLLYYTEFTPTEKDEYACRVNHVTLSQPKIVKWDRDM

Question: `Cc1cc2nc3[nH]c(=O)[nH]c(=O)c3nc2cc1C` [Lumichrome, 7,8-dimethylalloxazine] was tested. Which “refolding with MR1^R9H” value (MR1^R9H) did it give?
Answer: did not refold with MR1^R9H in solution; also recorded: unable to refold

Question: What about the “CD69 upregulation by MAIT or TRAV1-2^−ve cells” value [1] of the same compound?
Answer: not reduced

Question: And the MAIT cell proliferation [2]?
Answer: significantly reduced MAIT cell proliferation

Question: And the “Vγ9Vδ2 T cell activation induced by zoledronate (% CD69^+ Vδ2^+)” value (Vγ9Vδ2 T cells)?
Answer: did not interfere

Question: And the MR1 surface expression [3]?
Answer: reduced MR1 surface expression

Question: What about the “MAIT cell inhibition (CD69 MFI, % CD69^+, TNF production)” value (MAIT cells from PBMCs) of the same compound?
Answer: most potent competitor showing the strongest MAIT cell inhibition

Question: And the “folding of the MR1-β2m cocomplex in solution” value [4]?
Answer: facilitated the correct folding of the MR1-β2m cocomplex

Question: What about the “reactivity to 5-OP-RU (CD69)” value [5] of the same compound?
Answer: activated

Question: And the “reactivity to 5-OP-RU (CD69)” value ([6]; SKW-3-AF-7, in the presence of 1 nM 5-OP-RU)?
Answer: enhanced activation

Question: What about the “reactivity to RL-7-Me (CD69)” value ([6]; SKW-3-AF-7, in the presence of 100 nM RL-7-Me) of the same compound?
Answer: inhibited in a dose-dependent manner

Question: What about the “reactivity to 5-OP-RU (CD69)” value (SKW-3-MAV36 line) of the same compound?
Answer: inhibited

Question: What about the “reactivity of MR1 autoreactive, nucleobase-adduct reactive line (CD69)” value (SKW-3-DGB129 line) of the same compound?
Answer: inhibited

Question: What about the pIC50 (hMR1 protein) of the same compound?
Answer: 4.90

Question: What about the “MR1^K43A at the cell surface” value ([7]; 3 h) of the same compound?
Answer: increased MR1^K43A at the cell surface

Question: What about the “MR1^K43A at the cell surface” value ([7]; 16 h) of the same compound?
Answer: MR1 upregulation continues

Question: What about the “total level of folded MR1 (intracellular staining with 8F2.F9)” value [8] of the same compound?
Answer: increased the total level of folded MR1

Question: And the “MR1 cell surface expression” value ([9]; C1R.MR1 cells, 3 h, 1–200 µM, 8F2F9 antibody)?
Answer: reduced MR1 cell surface

Question: What about the “rank as downregulator of MR1 cell surface expression” value ([9]; overall: lumichrome, then alloxazine, lumiflavin, FMF) of the same compound?
Answer: most potent downregulator

Question: What about the “Tm50 (half-maximum melting temperature), Mean ± SD” value (soluble WT MR1) of the same compound?
Answer: 49.89 ± 0.33 °C
